# Reference: patent publication US11224624B2, “Modulation of microbial synthesis of 4-etylphenol and 4-ethylphenyl sulfate in behavior and disease” (California Institute of Technology, priority 2017, dated 2022)
# Columns and labels:
# [1] = target: Sult1A1 (sulfotransferase family 1A member 1) (Homo sapiens, UniProt P50225); assay: R&D SYSTEMS sulfotransferase assay, Sult1A1 modification of 4EP to 4EPS; format: biochemical; details: in vitro, FIG. 11C
# Experimental: Using R&D SYSTEMS Universal Sulfotransferase Assay Kit™, sulfation of 4-ethylphenol (4EP) or para-cresol (PC) was determined colorimetrically (FIG. 11A). Samples from the assay were pooled and analyzed by liquid chromotography mass spectrometry (LCMS) for the confirmation that 4EPS and PCS are present (FIG. 11B).
# An R&D SYSTEMS assay was used to determine whether quercetin and curcumin can inhibit Sult1A1 (sulfotransferase family 1A member 1, an enzyme that catalyzes sulfate conjugation) modification of 4EP to 4EPS (FIG. 11C). […] Accordingly, it is contemplated that quercetin and curcumin in accordance with some embodiments herein can inhibit the production of 4EPS in a subject in need thereof.
# Wildtype mice [2] = assay: Elevated plus maze, mice injected with 4EPS; format: in vivo, mouse; details: 30 mg/kg 4EPS potassium salt i.p. daily, 3 to 6 weeks of age, vs saline
# Experimental: (§1) Wildtype mice were injected intraperitoneally (i.p.) with saline or 30 mg/kg 4EPS potassium salt daily from 3 to 6 weeks of age and tested for anxiety in the elevated plus maze (FIG. 4A-C), light dark box (FIG. 4D-F), and open field arena (FIG. 4G-I) assays.
# Wildtype mice [3] = assay: Light dark box, mice injected with 4EPS; format: in vivo, mouse; details: 30 mg/kg 4EPS potassium salt i.p. daily, 3 to 6 weeks of age, vs saline
# Experimental: as §1
# wild-type mice = assay: Open field exploration and pre-pulse inhibition assays, wild-type mice injected with 4EPS (Example 1); format: in vivo, mouse; details: 30 mg/kg 4EPS potassium salt i.p. daily from 3 to 6 weeks of age vs saline, n=10/group
# Experimental: To measure effects of 4EPS on wild-type mice, the wild-type mice were injected intraperitoneally (i.p.) with saline or 30 mg/kg 4EPS potassium salt daily from 3 to 6 weeks of age. Anxiety-like behavior based on center duration (See FIG. 1B) and locomotor behavior (See […]) were measured in the open field exploration assay. n=10/group. Furthermore, the potentiated startle reflex was measured in the pre-pulse inhibition (PPI) assay, and measurements were taken of startle (Vmax) (FIG. 1C) and PPI % (FIG. 1D). n=10/group.
# Wildtype mice [4] = assay: Open field arena, mice injected with 4EPS; format: in vivo, mouse; details: 30 mg/kg 4EPS potassium salt i.p. daily, 3 to 6 weeks of age, vs saline
# Experimental: as §1
# [5] = 4EP to 4EPS conversion by cytosolic fractions from tissues of colonized mice; format: in vitro ADME, mouse; details: colon and liver cytosolic fractions of colonized mice, FIG. 11E
# Experimental: 4EP to 4EPS conversion was measured by cytosolic fractions from various tissues of colonized mice (FIG. 11E).
# Sequence of Sult1A1 (sulfotransferase family 1A member 1) (P50225 whole entry, species assumed): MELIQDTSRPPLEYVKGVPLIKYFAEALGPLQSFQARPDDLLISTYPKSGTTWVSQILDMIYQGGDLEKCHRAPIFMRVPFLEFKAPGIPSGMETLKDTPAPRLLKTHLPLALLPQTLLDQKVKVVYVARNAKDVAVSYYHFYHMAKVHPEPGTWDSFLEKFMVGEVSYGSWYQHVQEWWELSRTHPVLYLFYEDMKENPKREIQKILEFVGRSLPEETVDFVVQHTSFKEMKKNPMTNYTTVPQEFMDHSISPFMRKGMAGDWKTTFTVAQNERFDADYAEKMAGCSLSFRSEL
structure (smiles),measurement,setting,value
O=c1c(O)c(-c2ccc(O)c(O)c2)oc2cc(O)cc(O)c12 [quercetin],inhibition of sulfation of 4EP,[1],inhibit
"CCc1ccc(OS(=O)(=O)[O-])cc1.[K+] [4EPS, 4-ethylphenyl sulfate]",duration in the open (elevated plus maze),Wildtype mice [2],decreased
same,total terminus duration (elevated plus maze),Wildtype mice [2],decreased
same,frequency in the light (light dark box),Wildtype mice [3],decreased
same,total duration in the light (light dark box),Wildtype mice [3],decreased
same,"anxiety behaviors (open field center duration, startle, PPI)",wild-type mice,significantly increased anxiety behaviors
same,distance moved (open field arena),Wildtype mice [4],comparable to saline-injected mice
same,total duration in center (open field arena),Wildtype mice [4],decreased
"CCc1ccc(O)cc1 [4EP, 4-ethylphenol]",conversion of 4EP to 4EPS,[5],Substantial conversion
COc1cc(/C=C/C(=O)CC(=O)/C=C/c2ccc(O)c(OC)c2)ccc1O [curcumin],inhibition of sulfation of 4EP,[1],inhibit
